Measurements taken from patent publication US11331282B2, “Ophthalmic composition containing clathrated antioxidant substance, and use thereof” (TK Health Research, Co. Ltd., priority 2017, dated 2022).

Columns and labels:
[1] = Solubilization testing by filtration (colour of filtrate, 0.45 μm filter); format: physicochemical
Procedure: The astaxanthin concentration in the filtrate can be measured by measuring the absorbance of the wavelength 478 nm using an absorption (spectrophoto)meter. […] Astaxanthin was dissolved in DMSO, and the final concentration was adjusted to 6.25, 12.5, 25, 50, and 100 μg/ml with Milli-Q water. After 0 point correction with a solvent, 480 nm absorbance of each astaxanthin solution was measured, and calibration curves were drawn. The concentration of water soluble astaxanthin solution was found from the 480 nm absorbance measurement value of the water soluble astaxanthin solution based thereon. […] Solubilization of lycopene and canthaxanthin was confirmed by filtration with a 0.45 μm filter.

[2] = tested on: ocular surface goblet cells of a dry eye mouse model; assay: Goblet cell count by PAS stain in BAC dry eye mouse model; format: in vivo; details: oral administration for two weeks
Procedure: To find the effect of astaxanthin eye drops on ocular surface goblet cells of a dry eye mouse model, histological analysis was performed after two weeks of astaxanthin eye drops, and the number of goblet cells was counted by counting the cells stained red by PAS stain.
A dry eye mouse model was created in the same manner described in Example 1. Subsequently, astaxanthin eye drops were applied and astaxanthin was orally administered (oral intake astaxanthin, also denoted as oAsx) for two weeks. The change in tear volume was measured by Schirmer's test in the same manner as Example 1. The goblet cells were also counted in the same manner as Example 1.
A dry eye mouse model was created in the same manner as Example 1. Subsequently, water-soluble astaxanthin eye drops and DMSO dissolved astaxanthin eye drops were applied for two weeks, and the change in the tear volume was measured by Schirmer's test in the same manner as Example 1. The goblet cells were also counted in the same manner as Example 1.
A change in the tear volume in the mouse model is measured by Schirmer's test. The tear volume is determined as a relative tear volume (normal tear volume (filter moving distance): 7.17±1.35 mm) when normal tear volume is 100. Statistical processing: ANOVA, Student's t-test. […]

dry eye mouse model = assay: Change in tear volume by Schirmer's test in BAC dry eye mouse model; format: in vivo; details: oral intake 200 mg/kg, two weeks, Day 28, Example 2
Procedure: A dry eye mouse model was created by eye drop treatment with benzalkonium chloride (also denoted as BAC).
After two weeks of continuous BAC treatment of mice, additional BAC treatment and eye drop treatment with water soluble astaxanthin or water soluble control (vehicle, γ-cyclodextrin only) were continued for two weeks. A group of mice applied with only PBS eye drops was used as a […].
The change in the tear volume in the mouse model was measured by Schirmer's test. The tear volume was determined as a relative tear volume (normal tear volume (filter moving distance): 7.17±1.35 mm) when normal tear volume was 100. Statistical processing: ANOVA, Student's t-test.
A dry eye mouse model was created in the same manner described in Example 1. […] The change in tear volume was measured by Schirmer's test in the same manner as Example 1. The goblet cells were also counted in the same manner as Example 1.
A dry eye mouse model was created in the same manner as Example 1. Subsequently, water-soluble astaxanthin eye drops and DMSO dissolved astaxanthin eye drops were applied for two weeks, and the change in the tear volume was measured by Schirmer's test in the same manner as Example 1. The goblet cells were also counted in the same manner as Example 1. […]
A change in the tear volume in the mouse model is measured by Schirmer's test. […]

| solubilization in aqueous solvent (remains in filtrate after filtration) [1] | Compound | goblet cell count [2] | tear volume (relative to normal tear volume) (dry eye mouse model) |
| --- | --- | --- | --- |
| Successful water-solubilization | canthaxanthin |  |  |
|  | CC1=C(/C=C/C(C)=C/C=C/C(C)=C/C=C/C=C(C)/C=C/C=C(C)/C=C/C2=C(C)C(=O)[C@@H](O)CC2(C)C)C(C)(C)C[C@H](O)C1=O [astaxanthin] | recovery in the goblet cell count was not observed | increased only slightly |
